Tested on: Mtb ΔRv3032 mutant
Assay type: cell-based

OCC1=C[C@@H](N[C@H]2C[C@H](CO)[C@@H](O[C@H]3O[C@@H](CO)[C@H](O)[C@@H](O)[C@@H]3O)[C@H](O)[C@H]2O)[C@H](O)[C@@H](O)[C@@H]1O [VA, Validamycin A]
killing (reduction of viability, CFU) (over 7 days, cultures inoculated at 5×10^6 CFU/ml): 3 log | effect of over-expression of the putative target TreS (ΔRv3032 mutant with TreS from an integrative single-copy plasmid): marked resistance
